Columns and labels:
Proteus vulgaris GN 5297 = test: Synergy with Cefotiam, agar dilution MIC; format: cell-based; details: inoculum 10^8 per ml, 18 hours
Protocol: (§1) The inoculum concentration is 10^8 per ml, and the medium is prepared by using Trypticase® soy agar (Becton Dickinson & Company, USA).

[1] = tested on: Enterobacter cloacae IFO 12937; test: Synergy with Cefotiam, agar dilution MIC; format: cell-based; details: Table 4, 1 μg/ml test compound in agar, inoculum 10^8 per ml, 18 hours
Protocol: as §1

[2] = tested on: Citrobacter freundii GN 1706; test: Synergy with Cefotiam, agar dilution MIC; format: cell-based; details: inoculum 10^8 per ml, 18 hours
Protocol: as §1

Proteus morganii TN 387 = test: Synergy with Cefotiam, agar dilution MIC; format: cell-based; details: Table 4, 1 μg/ml test compound in agar, inoculum 10^8 per ml, 18 hours
Protocol: as §1

[3] = tested on: Citrobacter freundii TN 512; test: Synergy with Cefotiam, agar dilution MIC; format: cell-based; details: Table 4, 1 μg/ml test compound in agar, inoculum 10^8 per ml, 18 hours
Protocol: as §1

[4] = molecular target: T1, β-lactamase produced by Enterobacter cloacae IFO 12937 (Enterobacter cloacae, UniProt P05364); test: Inhibitor concentration required to inhibit β-lactamase (cephalosporinase) activity by 50%, micro-iodometric method; format: biochemical; details: Enterobacter cloacae IFO 12937 cephalosporinase; 0.05M phosphate buffer pH 7, 30° C., 10 minutes preincubation; cephalothin or ampicillin 0.1 mM; read-out: I50 (converted)
T1 construct: The β-lactamase produced by Enterobacter cloacae IFO 12937; endogenous in cells; host or cells: Enterobacter cloacae IFO 12937
T1 sequence (P05364 21-381): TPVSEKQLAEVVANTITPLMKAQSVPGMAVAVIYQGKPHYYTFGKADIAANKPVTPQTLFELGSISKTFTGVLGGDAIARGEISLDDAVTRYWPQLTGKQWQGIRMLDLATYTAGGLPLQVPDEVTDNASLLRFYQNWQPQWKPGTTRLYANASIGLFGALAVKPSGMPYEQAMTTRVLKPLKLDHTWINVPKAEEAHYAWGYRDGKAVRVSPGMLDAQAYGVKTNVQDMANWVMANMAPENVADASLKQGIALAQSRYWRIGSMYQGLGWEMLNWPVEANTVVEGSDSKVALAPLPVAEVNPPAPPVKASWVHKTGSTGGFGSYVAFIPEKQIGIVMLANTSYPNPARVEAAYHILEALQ
Protocol: Determination of the inhibitor concentration required to inhibit the enzyme activity by 50%
The β-lactamase produced by Enterobacter cloacae IFO 12937 is used as a typical example of cephalosporinase, and that produced by Staphylococcus aureus 1840 as typical example of penicillinase. The β-lactamase in incubated is 0.05M phosphate buffer (pH 7) with an appropriate dilution of an inhibitor preparation at 30° C. for 10 minutes. Cephalothin or ampicillin is then added in an amount sufficient to produce a final concentration of 0.1 mM, and the enzymatic reaction is allowed to proceed for 10 minutes. The enzyme activity is determined by the micro-iodometric method [Journal of general Microbiology, vol. 33, page 121 (1963)]. Hereinafter, the inhibitor concentration required to inhibit the enzyme activity by 50% is expressed as I50. The I50 values for Enterobacter cloaceae are shown in Table 1, and the I50 values for Staphylococcus aureus in Table 2.

[5] = tested on: Proteus morganii IFO 3168; test: Synergy with Cefotiam, agar dilution MIC; format: cell-based; details: Table 3, 1 μg/ml test compound in agar, inoculum 10^8 per ml, 18 hours
Protocol: as §1

[6] = tested on: Serratia marcescens IFO 12648; test: Synergy with Cefotiam, agar dilution MIC; format: cell-based; details: Table 3, 1 μg/ml test compound in agar, inoculum 10^8 per ml, 18 hours
Protocol: as §1

[7] = tested on: Citrobacter freundii IFO 12681; test: Synergy with Cefotiam, agar dilution MIC; format: cell-based; details: Table 3, 1 μg/ml test compound in agar, inoculum 10^8 per ml, 18 hours
Protocol: as §1

[8] = tested on: Enterobacter cloacae TN 587; test: Synergy with Cefotiam, agar dilution MIC; format: cell-based; details: Table 3, 1 μg/ml test compound in agar, inoculum 10^8 per ml, 18 hours
Protocol: as §1

[9] = Table 4, 1 μg/ml test compound in agar
[10] = Table 3, 1 μg/ml test compound in agar

Structure (SMILES)	MIC of Cefotiam with 1 μg/ml of Compound (Proteus vulgaris GN 5297; [9])	MIC of Cefotiam with 1 μg/ml of Compound [1]	MIC of Cefotiam with 1 μg/ml of Compound [2, 9]	MIC of Cefotiam with 1 μg/ml of Compound (Proteus morganii TN 387)	MIC of Cefotiam with 1 μg/ml of Compound [3]	IC50 [4]	MIC of Cefotiam with 1 μg/ml of Compound (Proteus vulgaris GN 5297; [10])	MIC of Cefotiam with 1 μg/ml of Compound [2, 10]	MIC of Cefotiam with 1 μg/ml of Compound [5]	MIC of Cefotiam with 1 μg/ml of Compound [6]	MIC of Cefotiam with 1 μg/ml of Compound [7]	MIC of Cefotiam with 1 μg/ml of Compound [8]
CC(C)(C)OC(=O)C(C)(C)ON=C(C(=O)NC1CN(S(=O)(=O)[O-])C1=O)c1csc(NS(=O)(=O)[O-])n1.[Na+].[Na+] (centres unmarked)	< 0.2	0.39	3.13	0.2	0.39	9.14 nM						
CON=C(C(=O)NC1CN(S(=O)(=O)O)C1=O)c1csc(N)n1 (centres unmarked) [Compound 12]	25	0.2	25	25	< 0.2	4010 nM						
CC(C)ON=C(C(=O)NC1CN(S(=O)(=O)[O-])C1=O)c1csc(=N)n1S(C)(=O)=O.[Na+] (centres unmarked)						4.19 nM	100	50	50	200	6.25	3.13
CC(C)ON=C(C(=O)NC1CN(S(=O)(=O)[O-])C1=O)c1csc(NS(C)(=O)=O)n1.[Na+] (centres unmarked)						4.4 nM	100	100	25	200	12.5	12.5
Cc1onc(-c2c(Cl)cccc2Cl)c1C(=O)NC1CN(S(=O)(=O)O)C1=O (centres unmarked) [Compound 9]	100	0.39	3.13	< 0.2	0.39	162 nM						
COC1(NC(=O)[C@H](NC(=O)N2CCN(N=Cc3ccco3)C2=O)c2ccccc2)CN(S(=O)(=O)O)C1=O (some centres unmarked) [Compound 3]	400	3.13	12.5	0.39	0.39	617 nM						
CC(C)(C)OC(=O)C(C)(C)ON=C(C(=O)NC1CN(S(=O)(=O)O)C1=O)c1csc(NC(c2ccccc2)(c2ccccc2)c2ccccc2)n1 (centres unmarked) [Compound 27, Sodium 3-[2-(2-tritylaminothiaozl-4-yl)-2-[(1-tert-butoxycarbonyl-1-methylethoxy)imino]acetamido]-2-oxoazetidine-1-sulfonate]	< 0.2	0.39	3.13	< 0.2	0.39	69.5 nM						
CON=C(C(=O)NC1CN(S(=O)(=O)O)C1=O)c1csc(NS(=O)(=O)O)n1 (centres unmarked) [Compound 29]	200	0.78	12.5	100	0.39	163 nM						

Reference: US4725591A, “β-lactamase inhibitory composition” (Takeda Chemical Industries, Ltd., priority 1980, dated 1988)
